From US12304894B2, “Derivatives of adamantyl oxadiazoles and pharmaceutically acceptable solvates, hydrates and salts thereof, pharmaceutical composition comprising same, synthesis method, suitable for use as effective and selective inhibitors of the reductase activity of the enzyme 11-beta dehydrogenase type 1 …” (PONTIFICIA UNIVERSIDAD CATOLICA DE CHILE, priority 2019, dated 2025)
pIC50: −log10 of the molar value. Values after ≈ are worked out from the molar mass of the structure shown.

Legend:
[1] = target: recombinant 11β-HSD1 enzyme (Homo sapiens (Human), UniProt P28845); test: 11β-HSD1 reductase activity (HTRF Cortisol Kit); type: biochemical; conditions: 266 nM cortisone, 333 μM NADPH, read-out: 11b-HSD1 reductase (HTRF) IC50
Description: Determination of 11β-HSD1 Reductase Activity
First, stock solutions of the compounds were prepared in DMSO at a concentration of […], of which serial dilutions were made in order to determine the efficacy curve.
As for the recombinant 11β-HSD1 enzyme (Cayman Chemical, MI, USA; Item No. 10007815), it was prepared in Tris Buffer 20 mM EDTA 5 mM pH 6.0 (Tris buffer) at different dilutions.
Initially, the enzyme concentration to be used in the assays in order to evaluate the biological activity of the compounds was determined. The Cortisol Kit product (Cisbio, MA, USA; Cat no. 62CRTPEG) was used for that purpose.
The protocol consisted of preparing the reaction buffer, adding 266 nM cortisone and 333 μM NADPH in Tris buffer. Then, this reaction buffer is added to the wells of the HTRF (Homogeneous Time Resolved Fluorescence) reaction plate together with the enzyme in a 4:1 ratio respectively, and incubated for 2 hours at 37° C. In the case of the control wells, two wells with Tris buffer were added, without compounds.
After the incubation time, the reagents of the Cortisol kit were added, Cortisol d2 and Cortisol cryptate in sample ratio, Cortisol d2 and cortisol cryptate 2:1:1, in a quantity according to the size of the well as indicated by the supplier (for the negative control of the kit, the cortisol d2 is replaced by the kit's reconstitution buffer). This reaction is incubated for 1 hour at room temperature in order to later read the fluorescence at 665 and 620 nm.
Once the enzyme concentration to be used has been determined, the cortisol kit protocol is continued to determine the efficacy curve for the compounds. As previously done, a plate for HTRF was prepared adding to each well of the reaction buffer, the recombinant 11β-HSD1 enzyme and the compounds to be assayed in a 3:1:1 ratio, respectively. The plate was subsequently incubated at 37° C. for 2 hours.
After the incubation time, the reagents of the cortisol kit, cortisol d2 and cortisol cryptate, are added, and were incubated again for 1 hour at room temperature. Finally, the fluorescence of each well was determined at 665 and 620 nm.

[2] = tested on: plasma proteins; test: Plasma protein binding (Transil XL PPB Binding Kit); type: in vitro ADME
Text: To carry out this study, the commercial Transil XL PPB Binding Kit, v2, Sovicell was used, following the manufacturer's recommendations.

[3] = Aqueous solubility in the gastrointestinal pH range; type: physicochemical
Description: A stock solution of 100 mM was prepared in DMSO that was added in volumes established on the buffers until the appearance of turbidity was observed. These solutions were prepared in triplicate in final DMSO concentrations of 0.5 to 5.0% V/V of each buffer, then were incubated at 37° C. with vigorous stirring for 48 hours, then another 48 hours but without stirring. The samples were centrifuged and the supernatant was diluted with mobile phase chromatography to be later analyzed by μHPLC-Ms/Ms. The solubility value at each pH was obtained from the intercept of the straight line solubility versus % DMSO. Table 6 presents the aqueous solubility values of BD-40 in the pH range 1.2-6.8.

Chain of recombinant 11β-HSD1 enzyme (P28845 whole entry): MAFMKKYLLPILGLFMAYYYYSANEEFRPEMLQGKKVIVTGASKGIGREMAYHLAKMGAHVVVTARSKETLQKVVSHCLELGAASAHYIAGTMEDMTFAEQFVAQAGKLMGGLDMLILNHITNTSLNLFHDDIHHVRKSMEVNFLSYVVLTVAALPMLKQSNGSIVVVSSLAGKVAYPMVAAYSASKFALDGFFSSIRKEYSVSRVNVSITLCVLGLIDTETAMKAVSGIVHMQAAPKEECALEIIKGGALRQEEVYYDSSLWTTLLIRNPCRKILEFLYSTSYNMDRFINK

SMILES: Cc1cccc(CCc2nc(C34CC5CC(CC(C5)C3)C4)no2)c1 [BD-40, 1-(3-methylphenyl)-2-(3-adamantyl-1,2,4-oxadiazol-5-yl)ethane]
- pIC50 [1]: 7.93
- plasma protein binding [2]: 98.3±1.9%
- Solubility ([3]; pH 1.7, 37° C.): 96.16 µg/mL (≈ 298 µM)
- Solubility ([3]; pH 4.5, 37° C.): 64.12 µg/mL (≈ 199 µM)
- Solubility ([3]; pH 6.8, 37° C.): 59.23 µg/mL (≈ 184 µM)
